According to article PMC6774960, “Design, synthesis and biological evaluation of a series of new resveratrol analogues as potential anti-cancer agents” (Royal Society Open Science, 2019):

Columns and labels:
HepG2 cells [1] = assay: MTT anti-proliferation assay, HepG2; format: cell-based, human; settings: 24 h, average of three determinations
Description: (§1) The 22 synthesized resveratrol compounds were evaluated for anti-proliferative activities against three human cancer cell lines, including HepG2, A549 and HeLa cells, using 3-[4,5-dimethylthiazol-2-yl]-2,5 diphenyl tetrazolium bromide (MTT) assays. Paclitaxel, a well-known tubulin inhibitor, was used as a positive control. […] Therefore, the inhibitory activity of the compounds depended not only on the 2-position substitution of acrylic acid, but also on the 3-position substitution of acrylic acid.
(§2) The anti-proliferative and cytotoxicity activity was determined using MTT assay. Human cervical carcinoma HeLa cells, human hepatocellular carcinoma HepG2 cells, human lung carcinoma A549 cells were representative in the anti-proliferation assay, which were obtained from the Shanghai Institute of Cell Biology (Shanghai, China). Normal African green monkey kidney Vero cells were a gift from Dr Xiumiao He at Guangxi University for Nationalities. Normal human hepatocytes LO2 cells were a gift from Dr Xing Lin at Guangxi Medical University. The HepG2, Hela, LO2 and Vero cells were cultured in Dulbecco's modified Eagle's medium (DMEM, Gibco) and the A549 cells were cultured in RPMI1640 (Gibco), both media were supplemented with 10% fetal calf serum and antibiotics (100 IU ml^−1 penicillin, 100 IU ml^−1 streptomycin; Amresco).
(§3) Cells were seeded in 96-well microtiter plates at a density of 1 × 10^4 cells well^−1 and incubated with different concentrations of compound (6.25, 12.50, 25.00, 50.00 to 100.00 µM), cisplatin and paclitaxel in RPMI-1640 or DMEM at 37°C with 5% CO2. After 24 h, cell morphology was observed using a light microscope, and then 20 µl of MTT solution (5 mg ml^−1) was added to the well and incubated for 4 h, then cell survival was determined by measuring the optical density (OD) absorbance at a wavelength of 570 nm using an ELISA microplate reader. The inhibition rate (IR) following each compound treatment was determined by the following equation: IR (%) = (1 − ODexp/ODcon) × 100%, where ODexp and ODcon are the OD of the treated and untreated cells, respectively. Cisplatin and paclitaxel were used as positive control drugs.

A549 cells = assay: MTT anti-proliferation assay, A549; format: cell-based, human; settings: 24 h, average of three determinations
Description: as §1, §2, §3

HeLa cells = assay: MTT anti-proliferation assay, HeLa; format: cell-based, human; settings: 24 h, average of three determinations
Description: The 22 synthesized resveratrol compounds were evaluated for anti-proliferative activities against three human cancer cell lines, including HepG2, A549 and HeLa cells, using 3-[4,5-dimethylthiazol-2-yl]-2,5 diphenyl tetrazolium bromide (MTT) assays. Paclitaxel, a well-known tubulin inhibitor, was used as a positive control.
as §2
After 24 h, cell morphology was observed using a light microscope, and then 20 µl of MTT solution (5 mg ml^−1) was added to the well and incubated for 4 h, then cell survival was determined by measuring the optical density (OD) absorbance at a wavelength of 570 nm using an ELISA microplate reader. […] Cisplatin and paclitaxel were used as positive control drugs.

Vero cells = assay: MTT cytotoxicity test, Vero; format: cell-based, African green monkey; settings: 24 h, average of three determinations
Description: (§4) Vero cells are non-tumorigenic cell lines and are important raw materials as the research and production of biological products. Vero cells show low tumorigenicity and had been approved for use in the production of human virus vaccines. Thus, Vero cells were chosen as a control for cytotoxicity. All compounds were evaluated for their cell toxicity against Vero and normal human hepatocytes cells line (LO2) using MTT assays.
as §2, §3

[2] = test system: normal human hepatocytes LO2 cells; assay: MTT cytotoxicity test, LO2; format: cell-based; settings: 24 h, average of three determinations
Description: as §4, §2, §3

HepG2 cells [3] = assay: Morphologic observation by light microscope; format: cell-based, human; settings: HepG2, cisplatin 20 µM, 24 h
Description: Morphological observations can directly reflect the effects of drugs on cells. HepG2 cells were cultured with increasing concentrations of compound r (0, 5, 15 and 45 µM) for 24 h and observed using a light microscope. The cell morphology was clearly altered with the increase in drug concentration (figure 2).
Figure 2. Effect of compound r on the microscopic examination of HepG2 cells. Morphology of HepG2 treated with compound r (0, 5, 15 and 45 µM) and cisplatin (20 µM) for 24 h. Light microscopy photographs, with 40× objective.
as §3

HepG2 cells [4] = assay: Cell cycle assay by flow cytometry; format: cell-based, human; settings: HepG2, 20 µM, 24 h
Description: To evaluate the effects of compound r on cell cycle progression of HepG2, cells were treated with compound r at different concentrations (0, 5, 15 and 45 µM) for 24 h and then examined by flow cytometry. The accumulation of cells in S phase increased with increasing concentration of compound r. Approximately 18.36 ± 1.93%, 19.39 ± 2.06%, 29.9 ± 0.87% and 34.24 ± 1.00% of cells were arrested in S phase in response to 0, 5, 15 and 45 µM compound r, respectively. In comparison, 39.56 ± 0.97% cells were arrested in S phase after treatment with 20 µM cisplatin for 24 h.
Figure 5. Cells treated with 0, 5, 15 and 45 µM compound r for 24 h were collected and analysed by flow cytometry. Images were representative of three independent experiments. Values represented the mean ± s.d.; versus blank, *p < 0.01, **p < 0.001; versus control ^#p < 0.01, ^##p < 0.001.
Cells were treated with compound r (0, 5, 15, 45 µM) or 20 µM of cisplatin as the control for 24 h. Cells were collected by centrifugation (1000 rpm, 5 min), washed with PBS and fixed with 70% ice-cold ethanol overnight at 4°C. The cell cycle was examined on a flow cytometer using a cell cycle analysis kit (Beyotime Biotechnologyin, China) in accordance with the manufacturer's instructions.

With “3-(4-hydroxy-3-methoxy-5-nitrophenyl)-2-(4-methoxyphenyl) acrylic acid [compound s]” as the molecule, how does the IC50 (HepG2 cells [1]) read?
Its IC50 is 42 ± 4 µM.

What about the IC50 (A549 cells) of the same molecule?
The IC50 was 15 ± 4 µM.

And the IC50 (HeLa cells)?
The IC50 was 39 ± 2 µM.

What about the CC50 (Vero cells) of the same molecule?
Its CC50 is greater than 100 µM.

What about the CC50 [2] of the same molecule?
The CC50 was 83 ± 2 µM.

What does the source list for `N.N.[Cl][Pt][Cl]` [cisplatin, reference compound]?
cell morphology (HepG2 cells [3]): rounded shape; cells arrested in S phase (HepG2 cells [4]): 39.56 ± 0.97%
